Ends that are not written are not given here.
Key:
[1] = test system: CHA15 cells transcriptome / NMD targets; assay: RNA-seq of CPP-peptide-treated CHA15 cells (NMD targets, SDGs; Fig. 6a, b, d; Supplementary Fig. 6a; Supplementary Data 2); format: cell-based, Homo sapiens; details: for gene expression, CPP-P8 / P1: vs P1, RNA-seq; for number of NMD targets significantly changed by CPP-P8: hESCs (CHA15)
Experimental: For CPP-conjugated peptide delivery, HeLa, 293T, and PA-1 cells were incubated with CPP-conjugated peptides or CPP-FITC at 2 μM in DMEM with 10% FBS for 12 h a day before cell harvest. hPSCs were treated with CPP-conjugated peptides at 10 μM in mTeSR Plus Medium, […] The ROCK inhibitor (Tocris Bioscience, Y-27632) treated-hPSCs were dissociated into single cells using Accutase (Merck, SCR005) and differentiated into ectoderm, mesoderm, and endoderm using the STEMdiff Trilineage Differentiation Kit ([…] Technologies, 05230) following the manufacturer’s protocol. Differentiated cells treated with CPP-conjugated peptides were analysed at 0, 3, and 5 days for ectoderm and endoderm, and at 0, 3, and 4 days for mesoderm.
Total RNA concentration was calculated using Quant-IT RiboGreen (Invitrogen, R11490). To assess the integrity of the total RNA, samples were run on a TapeStation RNA screentape (Agilent). Only high-quality RNA preparations with RNA integrity number greater than 7.0 were used for the RNA library construction. A library was independently prepared with 1 μg of total RNA from each sample using the Illumina TruSeq Stranded mRNA Sample Prep Kit (Illumina, 20020594). The first step in the workflow involves purifying poly‐A-containing mRNA molecules using poly‐T‐attached magnetic beads. Following purification, mRNA was fragmented into small pieces using divalent cations at elevated temperatures. The cleaved RNA fragments were copied into first-strand cDNA using SuperScript II reverse transcriptase (Invitrogen, 18064022) and random primers. This was followed by second-strand cDNA synthesis using DNA polymerase I, RNase H, and dUTP. These cDNA fragments underwent an end repair process, adding a single ‘A’ base and ligating the adapters. The products were purified and enriched via PCR to create the final cDNA library. The libraries were quantified using the KAPA Library Quantification Kits for Illumina Sequencing platforms according to the qPCR Quantification Protocol Guide (KAPA BIOSYSTEMS, KR0405) and qualified using the TapeStation D1000 ScreenTape (Agilent). Indexed libraries were then submitted to an Illumina NovaSeq (Illumina), and Macrogen Inc. performed paired-end (2 × 100 bp) sequencing.
We pre-processed the raw reads from the sequencer to remove low-quality reads and adapter sequences before analysis and aligned the processed reads to Homo sapiens (GRCh37) using HISAT v2.1.0[52]. HISAT utilises two indices for alignment (a global whole-genome index and tens of thousands of small local indexes). These two types of indices are constructed using the same Burrows-Wheeler transform (BWT)/graph FM index (GFM) as Bowtie2. The reference genome sequence of Homo sapiens (GRCh37) and the annotation data were downloaded from the NCBI database. Transcript assembly was processed using StringTie v1.3.4d[53],[54]. […] Differentially expressed genes (DEGs) were analysed by ratio of FPKM or using DESeq2 with read counts. Log2 fold-change value of the NMD targets[25],[32], three germ layer markers, miRNA targets, or SDGs was converted into cumulative frequency curve using the R function, ‘ecdf’ (version 4.0.5). Gene functional classification and Gene ontology (GO) were performed using g:Profiler[56].

[2] = test system: CHA15 cells; assay: Flow cytometry of SOX1, DLK1 and LHX2 during ectodermal differentiation (Fig. 7b, Supplementary Fig. 7f); format: cell-based, human; parameters: unit not given here; details: for DLK1 FACS, mean / LHX2 FACS, mean / SOX1 FACS, mean: mean from t test output, scale differs from set1-set3 values
Experimental: For CPP-conjugated peptide delivery, HeLa, 293T, and PA-1 cells were incubated with CPP-conjugated peptides or CPP-FITC at 2 μM in DMEM with 10% FBS for 12 h a day before cell harvest. hPSCs were treated with CPP-conjugated peptides at 10 μM in mTeSR Plus Medium, and the peptide-containing medium was changed every day over 10 days. The ROCK inhibitor (Tocris Bioscience, Y-27632) treated-hPSCs were dissociated into single cells using Accutase (Merck, SCR005) and differentiated into ectoderm, mesoderm, and endoderm using the STEMdiff Trilineage Differentiation Kit ([…] Technologies, 05230) following the manufacturer’s protocol. Differentiated cells treated with CPP-conjugated peptides were analysed at 0, 3, and 5 days for ectoderm and endoderm, and at 0, 3, and 4 days for mesoderm.
To evaluate the relative cell number expressing the indicated proteins, CHA15 cells with the indicated CPP-conjugated peptide were fixed with BD Cytofix Fixation Buffer (BD Biosciences Pharmingen, 554655) followed by permeabilization with 0.1% BSA/PBS solution supplemented with 10% NGS and 0.3% Triton X-100 for 1 h at 4 °C. After washing, cells were incubated with the primary antibodies (OCT4 1:1000, NANOG 1:1000, DLK1 1:1000, SOX2 1:1000, LHX2 1:1000) and then, secondary antibody, Alexa Fluor 488 (1:1000), was applied. The positive cells were determined using flow cytometry (FACSCanto, BD Pharmingen), and data was analysed using the Flow Jo-v10 software program.

[3] = vs. P1, ± SEM, unpaired t test, df=4

Substance: KKKWCRKKKSSADEKRYRALKRTAERELLMNA [CPP-P8, CPP conjugated to P8]
- gene expression, CPP-P8 / P1 ([1]; ACTC1): -1.36
- gene expression, CPP-P8 / P1 ([1]; ACTN1): -1.23
- gene expression, CPP-P8 / P1 ([1]; ADAR): -1.28
- gene expression, CPP-P8 / P1 ([1]; ADM): -2.99
- levels of the NMD targets ([1]; CHA15, 10 μM daily for 5 days): efficiently depressed the levels of the NMD targets
- transcripts with significant two-fold change ([1]; CHA15, 5 days, p < 0.05): 69 transcripts
- CAPN6 expression (dot plot) ([1]; CHA15, P8 vs P1 plot (Fig. 6d)): 0.9142
- CDH6 expression (dot plot) ([1]; CHA15, P8 vs P1 plot (Fig. 6d)): 0.924
- CYP26A1 expression (dot plot) ([1]; CHA15, P8 vs P1 plot (Fig. 6d)): 1.759
- DLX5 expression (dot plot) ([1]; CHA15, P8 vs P1 plot (Fig. 6d)): 0.5911
- number of NMD targets downregulated ([1]; CHA15, |Fc| > 1.2, P < 0.05, of 286 NMD targets): 32 transcripts
- number of NMD targets significantly changed by CPP-P8 ([1]; |Fc| > 1.2, p < 0.05): 51
- NMD targets commonly regulated with UPF1- and LIN28A-depletion ([1]; hPSCs, over 1.2-fold): 10 NMD targets
- transcripts commonly regulated with UPF1- and LIN28A-depletion ([1]; hPSCs, over 1.2-fold): 230 transcripts

Substance: KKKWCRKKKSSADEKRYRALKRTAERELLMNA [P8]
- DLK1 FACS, mean [2]: 8315
- LHX2 FACS, mean [2]: 9545
- SOX1 FACS, mean [2]: 5506
- DLK1 FACS, difference between means ± SEM [2, 3]: 1682 ± 236.3
- LHX2 FACS, difference between means ± SEM [2, 3]: 3433 ± 333.3
- SOX1 FACS, difference between means ± SEM [2, 3]: -2997 ± 246.0
- number of NMD targets significantly changed by CPP-P8 ([1]; |Fc| > 1.2, p < 0.05): 51
- NMD targets as share of significantly changed genes ([1]; hPSCs): 2.3%
- number of transcripts significantly regulated ([1]; hPSCs, |Fc| > 1.2, p < 0.05): 2196 transcripts

Substance: N-QKLDQKELQLEPM-C [P1, reference compound]
- DLK1 FACS, mean [2]: 6634
- LHX2 FACS, mean [2]: 6112
- SOX1 FACS, mean [2]: 8503
